The source of these data is ChEMBL document CHEMBL4000212, “New furoxan derivatives for the treatment of ocular hypertension” (Bioorg Med Chem Lett, 2017).

Data set [1] can be described thus: Solubility of the compound in water at 5 mg incubated in magnetic stirrer for 1 hr. In kind it is physicochemical.
The nature of data set [2]: Ionization constant, pKa of the compound by potentiometric titration. Format: physicochemical.
Data set [3] can be described thus: Solubility in pH 6 phosphate buffer /5% cremophor EL/0.3% DMSO/0.2 mg/ml bac solution at 10 mg incubated in magnetic stirrer for 1 hr. The settings on record: pH 6, 1 h. In kind it is physicochemical.
Data set [4] in a line: Ionization constant of the compound assessed as ionization level by potentiometric titration. In kind it is physicochemical.
The nature of data set [5]: Induction of NO release assessed as nitrite formation at 0.1 mM in phosphate buffer saline at pH 7.4 in presence of 5 mM L-cysteine measured after 1 hr by Griess assay. In general terms: Nitrite, measured by Griess reagent, commonly stands in for NO production.
A short description of data set [6]: Induction of NO release assessed as nitrite formation at 0.1 mM in phosphate buffer saline at pH 7.4 in presence of 0.5 mM L-cysteine measured after 1 hr by Griess assay.
The nature of data set [7]: n-Octanol-water distribution coefficient, log D of the compound at pH 7.4 after 20 mins by UV-spectrometric based shake-flask method. Format: physicochemical.
Data set [8] is described as follows: Induction of NO release assessed as nitrite formation at 0.1 mM in phosphate buffer saline at pH 7.4 in absence of L-cysteine measured after 1 hr by Griess assay.
The test system of data set [9] is Oryctolagus cuniculus. Description: Antiglaucoma activity in hypertonic saline-induced New Zealand white rabbit transient ocular hypertensive model assessed as IOP lowering efficacy at 30 uL administered topically immediately after hypertonic saline injection measured at 120 mins post dose. In kind it is functional.
For data set [10], the system named is Oryctolagus cuniculus. The data set can be described thus: Antiglaucoma activity in hypertonic saline-induced New Zealand white rabbit transient ocular hypertensive model assessed as IOP lowering efficacy at 30 uL administered topically immediately after hypertonic saline injection measured at 60 mins post dose. In kind it is functional.
Data set [11] has as its system Oryctolagus cuniculus. The data set can be described thus: Antiglaucoma activity in hypertonic saline-induced New Zealand white rabbit transient ocular hypertensive model assessed as IOP lowering efficacy at 30 uL administered topically immediately after hypertonic saline injection measured at 240 mins post dose. Format: functional.
The subject of data set [12] is Oryctolagus cuniculus. Description: Antiglaucoma activity in hypertonic saline-induced New Zealand white rabbit transient ocular hypertensive model assessed as IOP lowering efficacy at 30 uL administered topically immediately after hypertonic saline injection measured at 30 mins post dose. In kind it is functional.
Data set [13] relates to Oryctolagus cuniculus. Description: Antiglaucoma activity in hypertonic saline-induced New Zealand white rabbit transient ocular hypertensive model assessed as IOP lowering efficacy at 0.5% administered topically immediately after hypertonic saline injection measured at 60 mins post dose. Format: functional.
For data set [14], the system named is Oryctolagus cuniculus. The data set can be described thus: Antiglaucoma activity in hypertonic saline-induced New Zealand white rabbit transient ocular hypertensive model assessed as IOP lowering efficacy at 0.5% administered topically immediately after hypertonic saline injection measured at 120 mins post dose. In kind it is functional.

SMILES strings stand for the structures.

The term solubility denotes the concentration that dissolves in the medium under given conditions. Read a high solubility as much dissolved substance. As usually defined, the pKa is the negative logarithm of the acid dissociation constant. Higher therefore signals a weaker acid or stronger base. Usually logD stands for the decadic logarithm of the distribution of all forms, ionised or not, between an organic phase and buffer at a given pH. A low value points to lower lipophilicity. In data set [1], `CC(C)N(Cc1no[n+]([O-])c1C(N)=O)C(C)C` gave a solubility at 1 h below 0.5 mg/mL. Moreover, in data set [2], the pKa turned out to be 6.62. In addition, in data set [3], the solubility entry was “Insoluble”. Moreover, the Activity in [4] was 14.2%; in [5], 11.6%; in data set [6], 1.2%; in data set [8], 0%. Further, the logD at 20 min in [7] amounted to 1.4.

In [1], `Cc1c(OCCN(C)C)no[n+]1[O-].O=C(O)C(=O)O` came in with a solubility at 1 h above 30 mg/mL. For the same molecule, in data set [2], the pKa was found to be 7.9. The solubility entry in [3] was “Soluble”. Also, the Activity is 76% in [4]; below 1% in data set [5]; -9 mmHg in [9]; -14 mmHg in data set [10]; 0% in [6]; 0% in data set [8]. This molecule also registered a logD at 20 min in [7] of -0.28.

In the case of `CCN(Cc1ccccc1)Cc1no[n+]([O-])c1C#N.O=C(O)C(=O)O`, the solubility at 1 h in data set [1] is below 0.5 mg/mL. Further, the pKa in data set [2] amounted to 5.58. Further, the solubility result in data set [3] is listed as “Insoluble”. Also, the Activity turned out to be 1.5% in data set [4], 41.7% in data set [5], 16.4% in data set [6] and 0% in data set [8]. Further, in data set [7], the pH-dependent lipophilicity (logD) at 20 min stood at 2.62.

Turning to `Cc1c(OCCN)no[n+]1[O-].O=C(O)C(=O)O`, the solubility at 1 h in data set [1] was above 30 mg/mL. In [2], this molecule returned a pKa of 8.7. Moreover, the solubility entry in data set [3] is on record as “Soluble”. The Activity is 95.2% in data set [4]; below 1% in [5]; -8.8 mmHg in [9]; -11.9 mmHg in [10]; 0% in data set [6]; 0% in [8]. The logD at 20 min in [7] was -1.54.

Turning to `N#Cc1c(CN2CCN(c3ncccn3)CC2)no[n+]1[O-]`, in data set [1], the solubility at 1 h was below 0.5 mg/mL. The pKa in data set [2] is 2 to 5.38. Besides, in [3], the solubility entry is recorded as “Insoluble”. For the same molecule, the Activity is 0.9% in data set [4], 41.5% in data set [5], 14.4% in data set [6] and 0% in data set [8]. The logD at 20 min in [7] was 0.97.

Take `NC(=O)c1c(CO)no[n+]1[O-]`: the solubility at 1 h in data set [1] is above 30 mg/mL. In addition, the solubility entry in [3] is “Soluble”. The Activity is 12% in data set [5]; -2.9 mmHg in data set [9]; -4.8 mmHg in [10]; 1.8% in data set [6]; 0% in [8]. In [7], this molecule had a pH-dependent lipophilicity (logD) at 20 min of -1.48.

In data set [1], `CCN(C)Cc1no[n+]([O-])c1C#N.O=C(O)C(=O)O` displayed a solubility at 1 h above 30 mg/mL. This molecule also yielded a pKa in data set [2] of 5.79. For the same molecule, the solubility result in data set [3] is “Soluble”. Further, the Activity in [4] was found to be 2.4%; in [5], 40.9%; in [6], 17.5%; in data set [8] it was 0%. This molecule also returned a logD at 20 min in data set [7] of 1.31.

`CN(C)Cc1no[n+]([O-])c1C#N.O=C(O)C(=O)O` came in with a solubility at 1 h in data set [1] above 30 mg/mL. In addition, the pKa in data set [2] stood at 5.82. In addition, the solubility entry in data set [3] was “Soluble”. The Activity was 2.6% in data set [4]; 43.9% in data set [5]; -8.6 mmHg in data set [11]; -11.2 mmHg in data set [9]; -14.4 mmHg in [10]; 16.1% in data set [6]. For the same molecule, the Activity in data set [8] was 0%. The logD at 20 min in data set [7] was 0.87.

As to `CC(C)N(Cc1no[n+]([O-])c1C#N)C(C)C.CS(=O)(=O)O`, the solubility at 1 h in data set [1] is above 30 mg/mL. In [2], the pKa is 5.35. Also, in data set [3], the solubility entry was “Soluble”. The Activity amounted to 0.9% in [4], 41.9% in data set [5], 16.5% in [6] and 0% in data set [8]. The molecule also displayed a logD at 20 min in [7] of 2.35.

As to `CCCN(CCC)Cc1no[n+]([O-])c1C#N.O=C(O)C(=O)O`, the solubility at 1 h in [1] turned out to be 2 mg/mL. The molecule also yielded a pKa in [2] of 5.46. Moreover, the Activity was -8.5 mmHg in [12]; 1.1% in [4]; 42.3% in data set [5]; -2.8 mmHg in data set [9]; -5.3 mmHg in data set [10]; 18.1% in data set [6]. Also, the Activity in [8] stood at 0%. In addition, the solubility result in [3] was “Soluble”. Moreover, in [7], the logD at 20 min turned out to be 2.74.

As to `CC(C)(C)NC[C@H](O)COc1nsnc1N1CCOCC1` [TIMOLOL], the Activity in [13] is recorded as -7.17 mmHg; in [14], -7.33 mmHg.

Molecule `CCN(CC)Cc1no[n+]([O-])c1C#N.O=C(O)C(=O)O` had a solubility at 1 h in data set [1] above 30 mg/mL. In addition, the pKa in data set [2] was 5.8. Further, the solubility entry in data set [3] was “Soluble”. The Activity was 2.5% in data set [4]; 41.3% in data set [5]; -4.8 mmHg in data set [9]; -8.9 mmHg in [10]; 15.5% in [6]; 0% in data set [8]. This molecule registered a logD at 20 min in data set [7] of 1.98.

Take `CN(C)CCCN(C)Cc1no[n+]([O-])c1C#N.O=C(O)C(F)(F)F`: the solubility at 1 h in data set [1] is above 30 mg/mL. In data set [2], this molecule had a pKa of 3.34 to 9.3. Also, in data set [3], the solubility entry is recorded as “Soluble”. Moreover, the Activity turned out to be 98.8% in data set [4], 40.1% in data set [5], 13.5% in data set [6] and 0% in data set [8]. The molecule also registered a logD at 20 min in data set [7] of -0.73.

The molecule `N#Cc1c(CN2CCNCC2)no[n+]1[O-].O=C(O)C(F)(F)F` returned a solubility at 1 h in data set [1] above 30 mg/mL. This molecule also had a pKa in data set [2] of 2 to 8.81. For the same molecule, the solubility entry in [3] is “Soluble”. For the same molecule, the Activity was 96.3% in [4]; -10.6 mmHg in data set [9]; -11.5 mmHg in data set [10]; 15.4% in data set [6]; 0% in [8]. In addition, in [7], the logD at 20 min was -1.32.

Regarding `CN(C)Cc1no[n+]([O-])c1C(N)=O`, in data set [1], the solubility at 1 h was above 30 mg/mL. Moreover, the pKa in data set [2] was 6.57. For the same molecule, the solubility entry in [3] is reported as “Soluble”. In addition, the Activity is 12.9% in data set [4]; 12.8% in [5]; -8.6 mmHg in data set [9]; -12 mmHg in data set [10]; 1.4% in data set [6]; 0% in data set [8]. In data set [7], this molecule had a logD at 20 min of -0.03.

In the case of `N#Cc1c(CN2CCC(Br)CC2)no[n+]1[O-].O=C(O)C(=O)O`, in data set [1], the solubility at 1 h is below 0.5 mg/mL. For the same molecule, the pKa in data set [2] was 4.01. For the same molecule, in [3], the solubility result is on record as “Insoluble”. For the same molecule, the Activity in data set [4] is below 0.1%; in [5], 40.5%; in data set [6], 15.9%; in [8] it was 0%. In addition, the log distribution coefficient (logD) at 20 min in [7] is 2.31.

Consider `CCOC(=O)/N=c1\c[n+](N2CCOCC2)[n-]o1`, for which the Activity in data set [9] is on record as -8.17 mmHg; in data set [10] it was -7.83 mmHg.
